Results on one compound are retold here after patent US7851487B2, “Use of tetrahydropyridines in the treatment of central nervous system disorders” (The Research Foundation of State University of New York, priority 2006, dated 2010).

One assay deals with T1, Dopamine D2L (Homo sapiens, UniProt P14416).
T1 construct: host or cells: CHO cells
Nature of the assay: Radioligand binding, Dopamine D2L ([3H]Spiperone). The protocol: (§1) The assays utilized human neuroreceptors and were performed under the experimental parameters set forth in Table 2 using standard techniques.
(§2) For Table 3, IC50 values were determined by non-linear, least squares regression analysis using Data Analysis Toolbox™ (MDL Information Systems, San Leandro, Calif., USA). Inhibition constants (KI) were calculated using the equation of Cheng and Prusoff (Cheng, Y., et al. Biochem. Pharmacol. 22:3099-3108, 1973) using the observed IC50 of the tested compound, the concentration of radioligand employed in the assay, and the values for the KD of the ligand. The Hill coefficient (nH), defining the slope of the competitive binding curve, was calculated using the Data Analysis Toolbox™. Biochemical assay results are presented as the percent inhibition of specific binding or activity unless indicated otherwise. The experiments summarized in Table 3 utilized human dopamine D1, D2 s, D21, D3, D4.2, D4.4, serotonin 5HT1A, 5HT2A, 5HT2C, 5HT6, 5HT7, dopamine transporter (DAT), serotonin transporter (SERT) and the norepinephrine transporter (NET), as indicated in Table 3.

In the next assay the test system is ckr mouse. Nature of the assay: Prepulse inhibition (PPI) of the startle reflex in ckr mice. It counts as in vivo. The following applies: 10 mg/kg. The protocol:
To obtain the ckr mouse model presented in this Example, a representative compound 2 as set forth in Example 3 was used to investigate a standard measure of sensorimotor gating of the startle reflex. Sensorimotor gating of the startle reflex was assessed via measures of prepulse inhibition (PPI), which is the reduction in startle magnitude when the startling stimulus is preceded immediately by a weak prepulse. This measurement is valuable because the relative loss of PPI has been established in inherited neurodevelopmental disorders, such as schizophrenia in humans, as well as in rats after treatment with certain classes of drugs, including serotonin (5-HT) agonists. In animal models, the PPI test is considered to have good face, predictive and construct validity for sensorimotor gating deficits in schizophrenia.
A stock solution of compound 2 was dissolved in DMSO, and then diluted to 10 mg/10 ml with distilled water such that the final concentration of DMSO was 0.5%. […]
Startle reactivity was measured using a startle chamber (SR-LAB, San Diego Instruments, San Diego, Calif.). […]
The protocol for measuring PPI was adapted from known techniques. […] The startle response was recorded as the average movement detected over 65 ms following the pulse. […]
The startle amplitude was measured as the average startle response for the pulse-alone trials. […]

A further assay deals with T2, Dopamine D4.4 (Homo sapiens, UniProt P21917).
T2 construct: host or cells: CHO-K1 cells
T2 sequence (P21917 1-419): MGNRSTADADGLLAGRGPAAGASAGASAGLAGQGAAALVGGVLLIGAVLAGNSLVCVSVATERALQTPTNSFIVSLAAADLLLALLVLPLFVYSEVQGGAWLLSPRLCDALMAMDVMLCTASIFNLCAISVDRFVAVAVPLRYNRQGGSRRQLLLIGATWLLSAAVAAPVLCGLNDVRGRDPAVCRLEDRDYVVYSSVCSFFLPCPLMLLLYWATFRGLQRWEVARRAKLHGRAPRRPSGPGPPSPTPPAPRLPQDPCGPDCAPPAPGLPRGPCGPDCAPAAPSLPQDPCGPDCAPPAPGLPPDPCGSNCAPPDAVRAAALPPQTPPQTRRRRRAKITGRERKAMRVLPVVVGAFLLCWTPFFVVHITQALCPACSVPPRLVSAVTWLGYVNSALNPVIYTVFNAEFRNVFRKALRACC
Nature of the assay: Radioligand binding, Dopamine D4.4 ([3H]Spiperone). The protocol: as §1, §2

In the next assay the target is T3, Dopamine D4.2 (Homo sapiens, UniProt P21917, DEL265-296).
T3 construct: host or cells: CHO-K1 cells
T3 sequence (P21917 with tags, fused parts or gaps DEL265-296): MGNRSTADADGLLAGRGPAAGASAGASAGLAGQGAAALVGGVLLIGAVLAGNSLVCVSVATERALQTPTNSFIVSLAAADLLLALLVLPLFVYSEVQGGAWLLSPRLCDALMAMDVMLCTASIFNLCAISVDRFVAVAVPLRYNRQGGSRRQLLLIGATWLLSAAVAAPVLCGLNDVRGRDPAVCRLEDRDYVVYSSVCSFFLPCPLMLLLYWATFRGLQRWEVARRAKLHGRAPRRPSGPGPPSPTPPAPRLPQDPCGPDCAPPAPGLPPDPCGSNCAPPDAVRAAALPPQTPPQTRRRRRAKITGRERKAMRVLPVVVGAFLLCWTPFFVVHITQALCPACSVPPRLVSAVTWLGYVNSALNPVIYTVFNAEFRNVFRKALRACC
Briefly: Radioligand binding, Dopamine D4.2 ([3H]Spiperone). The procedure:
as §1, §2

In general, pIC50 refers to the IC50 on a negative log10 scale, so that one unit is a factor of ten. The low end stands for a large IC50, the high end for a small IC50. As a reminder, the pKi is the negative decadic logarithm of the Ki, by convention in mol/L. In general, inhibition refers to the drop in the measured response relative to a control, in per cent.

Each structure is given as a SMILES string. pIC50, pKi: −log10 of the molar value.

T1 sequence (P14416 whole entry): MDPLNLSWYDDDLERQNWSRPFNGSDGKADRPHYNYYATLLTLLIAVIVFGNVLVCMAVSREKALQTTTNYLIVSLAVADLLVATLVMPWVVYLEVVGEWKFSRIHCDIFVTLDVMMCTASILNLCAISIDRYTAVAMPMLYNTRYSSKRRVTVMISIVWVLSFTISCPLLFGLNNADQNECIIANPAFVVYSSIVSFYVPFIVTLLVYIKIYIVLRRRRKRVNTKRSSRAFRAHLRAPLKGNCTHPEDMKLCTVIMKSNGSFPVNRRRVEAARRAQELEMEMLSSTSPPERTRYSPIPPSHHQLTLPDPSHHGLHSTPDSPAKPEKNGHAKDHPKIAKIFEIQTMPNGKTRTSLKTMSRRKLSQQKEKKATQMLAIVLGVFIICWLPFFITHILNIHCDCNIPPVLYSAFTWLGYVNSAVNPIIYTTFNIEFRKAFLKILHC

For `COC(=O)[C@@H](c1ccc(-c2ccccc2)cc1)[C@H]1C=CCCN1` [Compound 2], the pIC50 on Dopamine D2L was 4.05; on Dopamine D4.4, 4.18; at Dopamine D4.2 it was 4.30. Further, the pKi was 4.53 at Dopamine D2L, 4.73 on Dopamine D4.4 and 4.71 on Dopamine D4.2. The inhibition at 10 µM at Dopamine D2L (Dopamine D2l, 10 μM, read-out: Percentage Inhibition) was 13%. On Dopamine D2L (Dopamine D2l, 100 μM, read-out: Percentage Inhibition), the inhibition at 100 µM came out at 54%. Moreover, the nH is on record as 0.716 at Dopamine D2L (Dopamine D2l, Hill coefficient); 1.01 at Dopamine D4.4 (Dopamine D4.4, Hill coefficient); 1.76 at Dopamine D4.2 (Dopamine D4.2, Hill coefficient). In the assay with ckr mouse, the “PPI over the control across all pre-pulse intensities” value is “trend of increased PPI”. In addition, the “Percentage Inhibition” value at Dopamine D4.4 (Dopamine D4.4, concentration 100 (unit not given)) was 62%; at Dopamine D4.2 (Dopamine D4.2, concentration 100 (unit not given)) it was 79%.
